For one data set, the system named is MCF-7 cells. The experiment in a line: Clonogenic survival assay. Type of data set: cell-based, human. The protocol: (§1) Fig. 6 Selective inhibition of PARG by xanthine derivative JA2131. a Clonogenic survival assays of PC3, MDA-MB-231, and MCF-7 cells treated with PARGi. Cells were treated with either DMSO or 10 µM JA2131 for 2 h, irradiated with 3 Gy (MDA-MB-231 and MCF-7), 7 Gy (PC3) IR and grown for ~2 weeks, then colonies were fixed with methanol and stained with crystal violet. The results of three independent experiments are shown. Error bars = the standard error of the mean (SEM). b dose-response of JA2131 in MDA-MB-231 cells with and without IR. Cells were treated with designated concentrations of JA2131 for 2 h and then either left untreated or exposed to 3 Gy IR and allowed to recover for 1 h before lysis. Total protein was immunoblotted with anti-PAR antibody (upper panel), stripped and reprobed with anti-PCNA as a loading control. c MDA-MB-231 cells with stable scrambled shRNA (WT) or stable PARG shRNA, knockdown (KD), were treated with 5 μM JA2131 for 2 h, lysed and then total lysates were immunoblotted for anti-PAR (upper panel) followed by anti-PARG (upper middle panel), anti-PARP1 (lower middle panel) and anti-actin (bottom panel) antibody. […] Stable cells with scramble shRNA (control) and shPARG (PARG-KD) cells were treated with an increasing concentration of JA2131 for growth inhibitory IC50 determination. The data was normalized against 100% survival at the lowest inhibitor concentration. Error bars show the percent coefficient of variation. Equivalent concentrations of DMSO were used as a negative control. e The cytotoxicity of JA2131 along with PDD, Veliparib and Doxorubicin against MRC-5 cells. Error bars show the percent coefficient of variation. f CETSA for in-cell JA2131 target engagement. Normalized anti-PARG western blot intensities of three independent experiments were fitted as above and the estimated aggregation temperature (Tagg) is shown in the tabulated insert. Source Data are provided as a Source Data file.
(§2) PC3, MDA-MB-231 cells were maintained in RPMI 1640, MCF-7 cells in Eagle’s Minimum Essential Medium (EMEM), MRC-5 cells in Eagle’s Minimum Essential Medium and Hela and U2OS cells in Dulbecco’s modified Eagle’s high glucose medium (DMEM) supplemented with 10% (vol/vol) fetal bovine serum (FBS) and 1% antibiotic/antimycotic (Lonza) in a humidified incubator with 10% CO2. All cell lines were purchased from ATCC and regularly checked for mycoplasma and cell authentication. SUM 149PT cells were cultured in F-12 Hams (Gibco) supplemented with 5% fetal bovine serum, insulin, and hydrocortisone. Colony formation assays were carried out in 6-well plates, 500 cells were used per well and following designated treatment, and colonies were grown for 2 weeks. Cells were fixed with methanol (100%), stained with crystal violet and analyzed using a GelCount instrument (Oxford Optronix Ltd). Crystal Violet C6158 was purchased from Sigma. PARG knockdown cells were generated by infecting MDA-MB-231 cells with shPARG lentiviral particles (sc-106355-V, Santa Cruz Biotechnology), which contain a pool of three shRNA plasmids. After 24 h infection, 3 µg/ml puromycin (Invitrogen) was added and antibiotic-resistant cells were further expanded and used for experimentation. Sequence-1; hairpin sequence: […], sense: […]tt, Antisense: […]tt. Sequence-2; hairpin sequence, […]-[…], sense: […]tt, antisense: […]tt. Sequence-3; hairpin sequence: […]-[…], sense: […]tt, antisense: […]-GGUUUCCtt. Control cells were generated using the same process except that scramble lentiviral particles with scrambled sequences were used (sc-108080).
(§3) Supplementary Fig. 8: Clonogenic survival of cells in the presence of PARGi and PARPi (a)
(§4) Clonogenic survival of PC3 cells in response to indicated compounds. ( b) Clonogenic survival of
(§5) MDA-MB-231 cells in response to i ndicated compounds. (c) Clonogenic survival of MCF -7 cells
(§6) in response to indicated compounds. […]

In a further data set the test system is MDA-MB-231 cells. Briefly: Clonogenic survival assay. Type of data set: cell-based, human. The conditions noted are these: MDA-MB-231. As for the experimental part:
as §1, §2, §3, §4, §5, §6

For data set [1], the system named is PC3 cells. Briefly: Clonogenic survival assay. Type of data set: cell-based, human. The following applies: PC3. The protocol: as §1, §2, §3, §4, §5, §6
Data set [2] in a line: Sulforhodamine B (SRB) cytotoxicity assay. The conditions noted are these: human, PC3 cells, Viability; for viability at 72 h, 1.95 µM: log [concentration] μM 0.290702; for viability at 72 h, 3.91 µM: log [concentration] μM 0.591732; for viability at 72 h, 7.81 µM: log [concentration] μM 0.892818; for viability at 72 h, 15.63 µM: log [concentration] μM 1.19382; for viability at 72 h, 31.25 µM: log [concentration] μM 1.49485; for viability at 72 h, 62.5 µM: log [concentration] μM 1.79588; for viability at 72 h, 125 µM: log [concentration] μM 2.09691; for viability at 72 h, 250 µM: log [concentration] μM 2.39794; for viability at 72 h, 500 µM: log [concentration] μM 2.69897; for viability at 72 h, 1000 µM: log [concentration] μM 3; for viability at 72 h, 2000 µM: log [concentration] μM 3.30103.

For the next data set, the system named is PARG. The conditions noted are these: cited from earlier work.
Data set [3] in a line: Sulforhodamine B (SRB) cytotoxicity assay. The following applies: human, MRC-5 cells. Type of data set: cell-based, human. The protocol:
as §1

The test system of a further data set is MRC-5 cells. The experiment in a line: Sulforhodamine B (SRB) cytotoxicity assay. Type of data set: cell-based, human. The conditions noted are these: Homo sapiens, MRC5, 72 h. The protocol: as §1
Data set [4] deals with PC3 cells. Briefly: Sulforhodamine B (SRB) cytotoxicity assay. The conditions noted are these: Homo sapiens, PC-3, 72 h, without IR.

Where “and” joins values, the source holds several entries; their conditions need not be identical. Identical values can stand only once. Like-named read-outs stand apart in the source and are kept apart here.

On to `O=C(c1cc(Cc2n[nH]c(=O)c3ccccc23)ccc1F)N1CCN(C(=O)C2CC2)CC1` [Olaparib, reference compound], for which, in the data set on MCF-7 cells (Experiment-1, replicates 1-6), the “colony count (clonogenic survival, raw replicate data, Supplementary Figure 8)” value (“colony count” for short) is 14 and 16 and 15 and 5 and 13 and 26. Besides, the “colony count” value with MCF-7 cells (Experiment-2, replicates 1-6) is 25 and 5 (2×) and 4 and 1 and 2. The “colony count” value in the data set on MCF-7 cells (Experiment-3, replicates 1-6) was 18 (2×) and 15 and 17 and 16 and 5. The “colony count” value in the data set on MDA-MB-231 cells (Experiment-1, replicates 1-6) was 0 and 1 (2×) and 2 (2×) and 3. Further, in the data set on MDA-MB-231 cells (Experiment-2, replicates 1-6), the “colony count” value was 1 (3×) and 2 (2×) and 3. For the same compound, the “colony count” value in the data set with MDA-MB-231 cells (Experiment-3, replicates 1-6) is 2 and 1 (3×) and 4 and 3. In the data set with PC3 cells [1] (Experiment-1, replicates 1-6), the “colony count” value was 5 and 10 and 21 and 13 and 39 and 16. For the same compound, the “colony count” value in the data set with PC3 cells [1] (Experiment-2, replicates 1-6) is 6 (3×) and 1 and 0 and 11. The “colony count” value in the data set with PC3 cells [1] (Experiment-3, replicates 1-6) is 0 (2×) and 3 (3×) and 1. In data set [2] (+IR 7.0 Gy), the viability at 72 h, 1.95 µM is 100%; the viability at 72 h, 3.91 µM came out at 101%; the viability at 72 h, 7.81 µM was determined as 101%; the viability at 72 h, 15.63 µM amounted to 99.1%. For the same compound, in data set [2] (+IR 7.0 Gy), the viability at 72 h, 31.25 µM was found to be 79.9%; the viability at 72 h, 62.5 µM was found to be 52.4%; the viability at 72 h, 125 µM was 32.6%; the viability at 72 h, 250 µM is 16.5%. Moreover, in data set [2] (+IR 7.0 Gy), the viability at 72 h, 500 µM worked out at 11.1%; the viability at 72 h, 1000 µM worked out at 11.4%; the viability at 72 h, 2000 µM was determined as 10.8%. In data set [2] (-IR), the viability at 72 h, 1.95 µM came to 100%; the viability at 72 h, 3.91 µM was 102%; the viability at 72 h, 7.81 µM is 94.4%; the viability at 72 h, 15.63 µM is 77.7%. Further, in data set [2] (-IR), the viability at 72 h, 31.25 µM worked out at 53.3%; the viability at 72 h, 62.5 µM was 34.7%; the viability at 72 h, 125 µM was 20.2%; the viability at 72 h, 250 µM worked out at 9.43%. Also, in data set [2] (-IR), the viability at 72 h, 500 µM stood at 5.75%; the viability at 72 h, 1000 µM was 6.34%; the viability at 72 h, 2000 µM was determined as 6.26%.

As to `O=C(OC[C@H]1O[C@@H](OC(=O)c2cc(O)c(O)c(OC(=O)c3cc(O)c(O)c(O)c3)c2)[C@H](OC(=O)c2cc(O)c(O)c(OC(=O)c3cc(O)c(O)c(O)c3)c2)[C@@H](OC(=O)c2cc(O)c(O)c(OC(=O)c3cc(O)c(O)c(O)c3)c2)[C@@H]1OC(=O)c1cc(O)c(O)c(OC(=O)c2cc(O)c(O)c(O)c2)c1)c1cc(O)c(O)c(OC(=O)c2cc(O)c(O)c(O)c2)c1` [Gallotannin], the IC50 with PARG (read-out: IC50) was under 5000 nM.

Turning to `COc1cccc2c1C(=O)c1c(O)c3c(c(O)c1C2=O)C[C@@](O)(C(=O)CO)C[C@@H]3O[C@H]1C[C@H](N)[C@H](O)[C@H](C)O1` [Doxorubicin], the viability at 72 h, 1.55 µM in data set [3] (log [concentration] μM 0.19) was 50.4%. In addition, the viability at 72 h, 3.09 µM in data set [3] (log [concentration] μM 0.49) was 47.4%. Also, the viability at 72 h, 6.31 µM in data set [3] (log [concentration] μM 0.8) was 50%. Further, the viability at 72 h, 12.6 µM in data set [3] (log [concentration] μM 1.1) came out at 50%. For the same compound, in data set [3] (log [concentration] μM 1.4), the viability at 72 h, 25.1 µM amounted to 45.6%. Besides, the viability at 72 h, 0.776 µM in data set [3] (log [concentration] μM -0.11) was 71.7%. The viability at 72 h, 0.389 µM in data set [3] (log [concentration] μM -0.41) turned out to be 96.5%. The viability at 72 h, 0.195 µM in data set [3] (log [concentration] μM -0.71) worked out at 100%. Also, the IC50 is 741 ± 100 nM in the data set on MRC-5 cells and 810 ± 300 nM in the data set with PC3 cells [4]. Moreover, the viability at 72 h, 1.56 µM in data set [2] (without IR, log [concentration] μM 0.194) worked out at 17.2%. Further, the viability at 72 h, 3.13 µM in data set [2] (without IR, log [concentration] μM 0.495) worked out at 11.1%. Also, in data set [2] (without IR, log [concentration] μM 0.796), the viability at 72 h, 6.25 µM is 10.1%. Moreover, in data set [2] (without IR, log [concentration] μM 1.097), the viability at 72 h, 12.5 µM came to 9.95%. The viability at 72 h, 25 µM in data set [2] (without IR, log [concentration] μM 1.398) was determined as 9.74%. For the same compound, in data set [2] (without IR, log [concentration] μM 1.699), the viability at 72 h, 50 µM came to 9.95%. Also, the viability at 72 h, 100 µM in data set [2] (without IR, log [concentration] μM 2) came to 10.6%. For the same compound, in data set [2] (without IR, log [concentration] μM 2.301), the viability at 72 h, 200 µM stood at 13.8%. For the same compound, the viability at 72 h, 0.78 µM in data set [2] (without IR, log [concentration] μM -0.107) came to 58.5%. Besides, the viability at 72 h, 0.39 µM in data set [2] (without IR, log [concentration] μM -0.408) was 95%. Besides, the viability at 72 h, 0.098 µM in data set [2] (without IR, log [concentration] μM -1.009) was 100%.

Take `Nc1ncnc2c1ncn2[C@@H]1O[C@H](CO[P@](=O)(O)O[P@@](=O)(O)OC[C@H]2NC[C@H](O)[C@@H]2O)[C@@H](O)[C@H]1O` [ADP-HPD, adenosine diphosphate (hydroxymethyl)pyrrolidinediol, reference compound]: the half-inhibitory concentration (IC50) in the data set on PARG (read-out: IC50, published values) is 100 to 1400 nM.

The values are drawn from publication PMC6906431, “Selective small molecule PARG inhibitor causes replication fork stalling and cancer cell death” (Nature Communications, 2019).
